Assay results from patent US7655392B2, “Quenching methods for red blood cell inactivation process” (priority 2004, dated 2010).

Tested on: red blood cells
Assay: Gel card agglutination with rabbit anti-acridine sera
Type: cell-based
Method: The reduction in modification of red blood cells in the methods of the present invention can be evaluated by several assays. In one assay, rabbit polyclonal sera that is reactive with acridine is produced by injecting New Zealand White rabbits with an acridine compound conjugated to KLH.
This is conjugated to KLH by adding 10 μL of the compound (10 mM in de-ionized water) to 990 μL of a buffered solution of KLH (10 mg/mL in 50 mM Phosphate, 150 mM NaCl, PBS pH=7.2 with proprietary stabilizer, Pierce Cat # 77600) and incubating at room temperature for over 20 hours. Following this incubaton, the conjugated KLH is isolated from the unreacted S-197 and S-197 by-products by passing through a desalting column (e.g. D-salt columns, Pierce) and eluting in PBS buffer. The colored fractions of the solutions are then combined and the KLH conjugates are characterized by the ratio of absorbance at 210 and 410 nm. The acridine-KLH conjugate solutions are mixed with Complete Freund's Adjuvant for intramuscular injection into the rabbits at multiple sites to immunize the rabbits. […] The resulting solution can be assayed for agglutination by passing through a Buffer Gel Card (Micro Typing Systems, Pompano Beach, Fla.). The gel cards are designed to allow non-agglutinated red blood cells to pass through, while cells agglutinated by reaction with the rabbit sera and cross reacting with the anti-rabbit antibody will remain at the top of the gel. The cards are scored as 0, 1+, 2+, 3+, or 4+, where 0 indicates all cells are intact and are at the bottom of the gel, while 4+ indicates complete agglutination, with all cells at the top of the gel.
In these, the appropriate amount of 600 mM stock was added, mixed with an appropriate volume of 8% dextrose to provide the same volume addition to each RBC sample where in one study, with varied glutathione concentrations, the pH was measured after adding glutathione and after adding PIC-1. […] Similar samples were also assessed for the inactivation of S. epidermidis. […] For gel card analysis, after incubation, the RBC were washed in BBS and were diluted in BBS to a final hematocrit of 4%. A 25 μL aliquot of each was mixed with 15 μL of rabbit polyclonal anti-acridine sera diluted either 1:4 or 1:100 in BBS and the mixture was incubated at 37° C. for 30 minutes. The cells were subsequently washed with 1.5 mL BBS. […]
Heterophile antibodies are naturally occurring antibodies that recognize RBC from another species in a non-specific fashion. […] All samples were mixed with quencher first, then PIC-1 at 0.2 mM.
The standard condition was included, i.e. 0.2 mM PIC-1 and 2 mM acidic glutathione added together.

Question: For `O=C(CCNc1c2ccccc2nc2ccccc12)OCCN(CCCl)CCCl` [PIC-1], which Gel card score (Table 13: 2 mM acidic GSH, 0.2 mM PIC-1, blood sample 1, sera 1:4) is on record?
Answer: The Gel card score was 4+.

Question: What about the Gel card score (Table 13: 2 mM acidic GSH, 0.2 mM PIC-1, blood sample 1, sera 1:100) of the same compound?
Answer: Its Gel card score is 4+.

Question: What about the Gel card score (Table 13: 2 mM acidic GSH, 0.2 mM PIC-1, blood sample 2, sera 1:4) of the same compound?
Answer: Its Gel card score is 4+.

Question: What about the Gel card score (Table 13: 2 mM acidic GSH, 0.2 mM PIC-1, blood sample 2, sera 1:100) of the same compound?
Answer: Its Gel card score is 4+.

Question: And the Gel card score (Table 13: 5 mM GSH 2eq/15 mM Cys 1eq, 0.2 mM PIC-1, blood sample 1, sera 1:4)?
Answer: The Gel card score was 2.

Question: And the Gel card score (Table 13: 5 mM GSH 2eq/15 mM Cys 1eq, 0.2 mM PIC-1, blood sample 1, sera 1:100)?
Answer: The Gel card score was 0.

Question: And the Gel card score (Table 13: 5 mM GSH 2eq/15 mM Cys 1eq, 0.2 mM PIC-1, blood sample 2, sera 1:4)?
Answer: Its Gel card score is 3.

Question: What about the Gel card score (Table 13: 5 mM GSH 2eq/15 mM Cys 1eq, 0.2 mM PIC-1, blood sample 2, sera 1:100) of the same compound?
Answer: The Gel card score was 0.

Question: What about the Gel card score (Table 13: 5 mM GSH 2eq/15 mM Cys 2eq, 0.2 mM PIC-1, blood sample 1, sera 1:4) of the same compound?
Answer: The Gel card score was 1.

Question: What about the Gel card score (Table 13: 5 mM GSH 2eq/15 mM Cys 2eq, 0.2 mM PIC-1, blood sample 1, sera 1:100) of the same compound?
Answer: The Gel card score was 0.

Question: And the Gel card score (Table 13: 5 mM GSH 2eq/15 mM Cys 2eq, 0.2 mM PIC-1, blood sample 2, sera 1:4)?
Answer: The Gel card score was 1.

Question: What about the Gel card score (Table 13: 5 mM GSH 2eq/15 mM Cys 2eq, 0.2 mM PIC-1, blood sample 2, sera 1:100) of the same compound?
Answer: Its Gel card score is 0.

Question: What about the Gel card score (Table 13: 10 mM GSH 2eq/10 mM Cys 1eq, 0.2 mM PIC-1, blood sample 1, sera 1:4) of the same compound?
Answer: The Gel card score was 3.

Question: What about the Gel card score (Table 13: 10 mM GSH 2eq/10 mM Cys 1eq, 0.2 mM PIC-1, blood sample 1, sera 1:100) of the same compound?
Answer: Its Gel card score is 0.

Question: And the Gel card score (Table 13: 10 mM GSH 2eq/10 mM Cys 1eq, 0.2 mM PIC-1, blood sample 2, sera 1:4)?
Answer: Its Gel card score is 3.

Question: What about the Gel card score (Table 13: 10 mM GSH 2eq/10 mM Cys 1eq, 0.2 mM PIC-1, blood sample 2, sera 1:100) of the same compound?
Answer: The Gel card score was 0.

Question: And the Gel card score (Table 13: 10 mM GSH 2eq/10 mM Cys 2eq, 0.2 mM PIC-1, blood sample 1, sera 1:4)?
Answer: The Gel card score was 2.

Question: What about the Gel card score (Table 13: 10 mM GSH 2eq/10 mM Cys 2eq, 0.2 mM PIC-1, blood sample 1, sera 1:100) of the same compound?
Answer: Its Gel card score is 0.

Question: And the Gel card score (Table 13: 10 mM GSH 2eq/10 mM Cys 2eq, 0.2 mM PIC-1, blood sample 2, sera 1:4)?
Answer: Its Gel card score is 2.

Question: And the Gel card score (Table 13: 10 mM GSH 2eq/10 mM Cys 2eq, 0.2 mM PIC-1, blood sample 2, sera 1:100)?
Answer: Its Gel card score is 0.

Question: What about the Gel card score (Table 13: 15 mM GSH 2eq/5 mM Cys 1eq, 0.2 mM PIC-1, blood sample 1, sera 1:4) of the same compound?
Answer: Its Gel card score is 4.

Question: What about the Gel card score (Table 13: 15 mM GSH 2eq/5 mM Cys 1eq, 0.2 mM PIC-1, blood sample 1, sera 1:100) of the same compound?
Answer: Its Gel card score is 0.

Question: And the Gel card score (Table 13: 15 mM GSH 2eq/5 mM Cys 1eq, 0.2 mM PIC-1, blood sample 2, sera 1:4)?
Answer: Its Gel card score is 3.

Question: And the Gel card score (Table 13: 15 mM GSH 2eq/5 mM Cys 1eq, 0.2 mM PIC-1, blood sample 2, sera 1:100)?
Answer: Its Gel card score is 0.

Question: And the Gel card score (Table 13: 15 mM GSH 2eq/5 mM Cys 2eq, 0.2 mM PIC-1, blood sample 1, sera 1:4)?
Answer: The Gel card score was 4.

Question: What about the Gel card score (Table 13: 15 mM GSH 2eq/5 mM Cys 2eq, 0.2 mM PIC-1, blood sample 1, sera 1:100) of the same compound?
Answer: The Gel card score was 0.

Question: And the Gel card score (Table 13: 15 mM GSH 2eq/5 mM Cys 2eq, 0.2 mM PIC-1, blood sample 2, sera 1:4)?
Answer: Its Gel card score is 3.

Question: And the Gel card score (Table 13: 15 mM GSH 2eq/5 mM Cys 2eq, 0.2 mM PIC-1, blood sample 2, sera 1:100)?
Answer: Its Gel card score is 0.

Question: What about the Gel card score (Table 13: 20 mM Cys 1eq, 0.2 mM PIC-1, blood sample 1, sera 1:4) of the same compound?
Answer: The Gel card score was 0.

Question: And the Gel card score (Table 13: 20 mM Cys 1eq, 0.2 mM PIC-1, blood sample 1, sera 1:100)?
Answer: The Gel card score was 0.

Question: And the Gel card score (Table 13: 20 mM Cys 1eq, 0.2 mM PIC-1, blood sample 2, sera 1:4)?
Answer: Its Gel card score is 3.

Question: What about the Gel card score (Table 13: 20 mM Cys 1eq, 0.2 mM PIC-1, blood sample 2, sera 1:100) of the same compound?
Answer: The Gel card score was 0.

Question: What about the Gel card score (Table 13: 20 mM Cys 2eq, 0.2 mM PIC-1, blood sample 1, sera 1:4) of the same compound?
Answer: The Gel card score was 0.

Question: And the Gel card score (Table 13: 20 mM Cys 2eq, 0.2 mM PIC-1, blood sample 1, sera 1:100)?
Answer: Its Gel card score is 0.

Question: And the Gel card score (Table 13: 20 mM Cys 2eq, 0.2 mM PIC-1, blood sample 2, sera 1:4)?
Answer: Its Gel card score is 1.

Question: What about the Gel card score (Table 13: 20 mM Cys 2eq, 0.2 mM PIC-1, blood sample 2, sera 1:100) of the same compound?
Answer: Its Gel card score is 0.

Question: What about the Gel card score (Table 13: 20 mM GSH 2eq, 0.2 mM PIC-1, blood sample 1, sera 1:4) of the same compound?
Answer: Its Gel card score is 4.

Question: And the Gel card score (Table 13: 20 mM GSH 2eq, 0.2 mM PIC-1, blood sample 1, sera 1:100)?
Answer: Its Gel card score is 0.

Question: What about the Gel card score (Table 13: 20 mM GSH 2eq, 0.2 mM PIC-1, blood sample 2, sera 1:4) of the same compound?
Answer: Its Gel card score is 4.

Question: And the Gel card score (Table 13: 20 mM GSH 2eq, 0.2 mM PIC-1, blood sample 2, sera 1:100)?
Answer: The Gel card score was 0.

Question: And the Gel card score (Table 14: 5 mM CysGly 1 eq. base, 0.2 mM PIC-1, 1:4 dilution of serum)?
Answer: The Gel card score was 4.

Question: And the Gel card score (Table 14: 5 mM CysGly 1 eq. base, 0.2 mM PIC-1, 1:100 dilution of serum)?
Answer: Its Gel card score is 2.

Question: And the Gel card score (Table 14: 5 mM CysGly, 0.2 mM PIC-1, 1:4 dilution of serum)?
Answer: Its Gel card score is 4.

Question: And the Gel card score (Table 14: 5 mM CysGly, 0.2 mM PIC-1, 1:100 dilution of serum)?
Answer: Its Gel card score is 0.

Question: What about the Gel card score (Table 14: 10 mM CysGly, 0.2 mM PIC-1, 1:4 dilution of serum) of the same compound?
Answer: Its Gel card score is 4.

Question: And the Gel card score (Table 14: 10 mM CysGly, 0.2 mM PIC-1, 1:100 dilution of serum)?
Answer: The Gel card score was 0.

Question: What about the Gel card score (Table 14: […] CysGly 1 eq. base, 0.2 mM PIC-1, 1:4 dilution of serum) of the same compound?
Answer: The Gel card score was 4.

Question: What about the Gel card score (Table 14: […] CysGly 1 eq. base, 0.2 mM PIC-1, 1:100 dilution of serum) of the same compound?
Answer: Its Gel card score is 4.

Question: What about the Gel card score (Table 14: […] CysGly, 0.2 mM PIC-1, 1:4 dilution of serum) of the same compound?
Answer: Its Gel card score is 4.

Question: What about the Gel card score (Table 14: […] CysGly, 0.2 mM PIC-1, 1:100 dilution of serum) of the same compound?
Answer: Its Gel card score is 3.

Question: What about the Gel card score (another study, rabbit sera 1:4: 10 mM neutralized (2 eq.) glutathione, 0.2 mM PIC-1) of the same compound?
Answer: The Gel card score was 4+.

Question: What about the Gel card score (another study, rabbit sera 1:4: 15 mM neutralized (2 eq.) glutathione, 0.2 mM PIC-1) of the same compound?
Answer: The Gel card score was 3+.

Question: What about the Gel card score (another study, rabbit sera 1:4: 20 mM neutralized (2 eq.) glutathione, 0.2 mM PIC-1) of the same compound?
Answer: The Gel card score was 1+.

Question: What about the Gel card score (another study, rabbit sera 1:4: standard condition) of the same compound?
Answer: Its Gel card score is 4+.

Question: What about the Gel card score (another study, rabbit sera 1:100: 10, 15, 20 mM neutralized glutathione, all samples) of the same compound?
Answer: Its Gel card score is 0.
